Columns and labels:
Assay in all cases: Kinase profiling in a biochemical assay panel (mobility shift assays and ELISA), %-inhibition at 1 μM; selectivity entropy
[1] = molecular target: T1, panel of more than 300 wild-type and mutant kinases (313 kinase panel) (Homo sapiens, UniProt Q96PN8); details: kinase TSSK3; compound at 1 μM
T1 sequence (Q96PN8 1-268): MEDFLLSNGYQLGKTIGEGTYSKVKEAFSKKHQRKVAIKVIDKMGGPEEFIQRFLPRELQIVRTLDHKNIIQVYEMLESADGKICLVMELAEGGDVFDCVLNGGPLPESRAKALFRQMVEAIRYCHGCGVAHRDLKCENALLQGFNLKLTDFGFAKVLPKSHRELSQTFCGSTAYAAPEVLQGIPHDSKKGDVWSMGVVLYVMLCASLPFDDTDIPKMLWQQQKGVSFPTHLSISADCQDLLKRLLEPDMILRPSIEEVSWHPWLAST

[2] = molecular target: panel of more than 300 wild-type and mutant kinases (313 kinase panel) (Homo sapiens, UniProt P06241); details: kinase FYN; compound at 1 μM
[3] = molecular target: panel of more than 300 wild-type and mutant kinases (313 kinase panel) (Homo sapiens, UniProt Q9H2G2); details: kinase SLK; 1 μM
[4] = molecular target: panel of more than 300 wild-type and mutant kinases (313 kinase panel) (Homo sapiens, UniProt P11802); details: kinase CDK4/CycD3; 1 μM compound
[5] = molecular target: panel of more than 300 wild-type and mutant kinases (313 kinase panel) (Homo sapiens, UniProt P54646); details: kinase AMPKα2/β1/γ1; 1 μM compound
[6] = molecular target: panel of more than 300 wild-type and mutant kinases (313 kinase panel) (Homo sapiens, UniProt P49841); details: kinase GSK3β; compound at 1 μM
[7] = molecular target: T2, panel of more than 300 wild-type and mutant kinases (313 kinase panel) (Homo sapiens, UniProt P41743); details: kinase PKCι; 1 μM
T2 sequence (P41743 1-596): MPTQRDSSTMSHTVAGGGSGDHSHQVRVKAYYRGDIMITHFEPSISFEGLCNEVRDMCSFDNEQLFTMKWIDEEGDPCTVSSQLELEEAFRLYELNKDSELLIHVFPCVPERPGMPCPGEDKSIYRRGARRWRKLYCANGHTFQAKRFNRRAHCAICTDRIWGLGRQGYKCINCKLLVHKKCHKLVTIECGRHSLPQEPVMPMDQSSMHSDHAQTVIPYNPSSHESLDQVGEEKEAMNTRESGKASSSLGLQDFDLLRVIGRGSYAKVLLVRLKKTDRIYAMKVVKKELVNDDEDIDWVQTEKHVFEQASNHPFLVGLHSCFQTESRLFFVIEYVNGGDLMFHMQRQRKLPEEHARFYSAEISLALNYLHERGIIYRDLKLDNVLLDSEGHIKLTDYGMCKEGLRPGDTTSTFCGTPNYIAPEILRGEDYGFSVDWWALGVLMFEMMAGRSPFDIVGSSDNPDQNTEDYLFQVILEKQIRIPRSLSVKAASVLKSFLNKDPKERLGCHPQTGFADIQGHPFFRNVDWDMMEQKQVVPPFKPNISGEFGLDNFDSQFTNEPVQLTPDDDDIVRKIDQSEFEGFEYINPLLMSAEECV

[8] = molecular target: T3, panel of more than 300 wild-type and mutant kinases (313 kinase panel) (Homo sapiens, UniProt Q15831); details: kinase LKB1; compound at 1 μM
T3 sequence (Q15831 1-433): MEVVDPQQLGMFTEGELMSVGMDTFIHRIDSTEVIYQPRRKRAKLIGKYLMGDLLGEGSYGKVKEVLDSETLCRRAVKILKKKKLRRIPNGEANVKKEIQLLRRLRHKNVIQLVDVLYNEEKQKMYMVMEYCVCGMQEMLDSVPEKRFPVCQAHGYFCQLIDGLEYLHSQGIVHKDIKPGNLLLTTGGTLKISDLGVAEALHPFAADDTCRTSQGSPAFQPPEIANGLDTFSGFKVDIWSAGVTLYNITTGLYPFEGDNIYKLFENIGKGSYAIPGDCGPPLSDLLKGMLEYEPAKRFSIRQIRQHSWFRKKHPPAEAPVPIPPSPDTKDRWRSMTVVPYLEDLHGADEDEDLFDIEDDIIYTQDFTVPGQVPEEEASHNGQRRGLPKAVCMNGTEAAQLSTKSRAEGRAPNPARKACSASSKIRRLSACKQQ

[9] = molecular target: panel of more than 300 wild-type and mutant kinases (313 kinase panel) (Homo sapiens, UniProt Q16620); details: kinase TRKB; 1 μM
[10] = molecular target: panel of more than 300 wild-type and mutant kinases (313 kinase panel) (Homo sapiens, UniProt Q9P1W9); details: kinase PIM2; 1 μM
[11] = molecular target: panel of more than 300 wild-type and mutant kinases (313 kinase panel) (Homo sapiens, UniProt P08069); details: kinase IGF1R; compound at 1 μM
[12] = molecular target: panel of more than 300 wild-type and mutant kinases (313 kinase panel) (Homo sapiens, UniProt Q13882); details: kinase BRK; 1 μM compound
[13] = molecular target: panel of more than 300 wild-type and mutant kinases (313 kinase panel) (Homo sapiens, UniProt P22607, K650M); details: kinase FGFR3(K650M); compound at 1 μM
Chain of panel of more than 300 wild-type and mutant kinases (313 kinase panel) (Homo sapiens, UniProt P22607, K650M) (P22607 23-806 K650M): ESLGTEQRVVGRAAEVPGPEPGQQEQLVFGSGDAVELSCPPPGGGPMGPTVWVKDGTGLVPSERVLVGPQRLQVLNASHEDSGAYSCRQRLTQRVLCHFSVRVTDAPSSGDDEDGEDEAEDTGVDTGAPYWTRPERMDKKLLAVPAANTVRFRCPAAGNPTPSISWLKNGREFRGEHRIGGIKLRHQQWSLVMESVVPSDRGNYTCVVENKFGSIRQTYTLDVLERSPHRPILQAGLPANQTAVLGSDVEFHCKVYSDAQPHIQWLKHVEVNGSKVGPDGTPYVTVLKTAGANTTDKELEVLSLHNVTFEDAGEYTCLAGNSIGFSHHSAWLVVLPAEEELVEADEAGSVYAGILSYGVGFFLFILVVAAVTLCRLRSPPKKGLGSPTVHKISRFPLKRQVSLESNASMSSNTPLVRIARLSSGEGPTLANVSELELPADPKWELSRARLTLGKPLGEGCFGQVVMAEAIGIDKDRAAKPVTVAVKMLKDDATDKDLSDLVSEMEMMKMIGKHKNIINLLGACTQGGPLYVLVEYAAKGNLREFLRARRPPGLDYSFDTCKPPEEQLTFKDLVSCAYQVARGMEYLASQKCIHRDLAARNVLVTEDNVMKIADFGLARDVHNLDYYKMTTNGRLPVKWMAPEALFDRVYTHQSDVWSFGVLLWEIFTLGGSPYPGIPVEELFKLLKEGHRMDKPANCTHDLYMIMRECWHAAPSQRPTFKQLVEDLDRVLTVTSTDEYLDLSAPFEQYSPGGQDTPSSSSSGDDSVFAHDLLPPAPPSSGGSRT

Chain of panel of more than 300 wild-type and mutant kinases (313 kinase panel) (Homo sapiens, UniProt Q13882) (Q13882 whole entry, stated change not applied): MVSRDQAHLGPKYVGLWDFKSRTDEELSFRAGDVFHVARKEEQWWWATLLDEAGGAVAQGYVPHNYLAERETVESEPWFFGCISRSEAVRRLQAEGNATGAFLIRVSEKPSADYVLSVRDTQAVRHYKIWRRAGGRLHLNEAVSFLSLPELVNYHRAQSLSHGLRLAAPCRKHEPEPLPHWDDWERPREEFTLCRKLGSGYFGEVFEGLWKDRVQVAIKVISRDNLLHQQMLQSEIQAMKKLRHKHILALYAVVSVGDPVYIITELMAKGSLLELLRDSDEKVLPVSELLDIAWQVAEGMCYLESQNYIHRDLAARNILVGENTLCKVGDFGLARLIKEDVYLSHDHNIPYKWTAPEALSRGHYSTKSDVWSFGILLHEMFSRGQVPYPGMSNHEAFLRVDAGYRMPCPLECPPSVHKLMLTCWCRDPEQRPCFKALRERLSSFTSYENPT
Chain of panel of more than 300 wild-type and mutant kinases (313 kinase panel) (Homo sapiens, UniProt P11802) (P11802 whole entry, change not shown): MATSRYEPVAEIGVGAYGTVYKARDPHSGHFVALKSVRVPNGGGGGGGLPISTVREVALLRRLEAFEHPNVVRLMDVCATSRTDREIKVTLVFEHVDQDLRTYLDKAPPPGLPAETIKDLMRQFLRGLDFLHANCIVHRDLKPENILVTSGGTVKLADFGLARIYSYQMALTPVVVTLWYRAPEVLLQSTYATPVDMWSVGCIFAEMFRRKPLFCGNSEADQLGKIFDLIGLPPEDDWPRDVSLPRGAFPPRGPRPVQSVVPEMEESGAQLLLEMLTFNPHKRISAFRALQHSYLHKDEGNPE
Chain of panel of more than 300 wild-type and mutant kinases (313 kinase panel) (Homo sapiens, UniProt P06241) (P06241 whole entry, change not shown): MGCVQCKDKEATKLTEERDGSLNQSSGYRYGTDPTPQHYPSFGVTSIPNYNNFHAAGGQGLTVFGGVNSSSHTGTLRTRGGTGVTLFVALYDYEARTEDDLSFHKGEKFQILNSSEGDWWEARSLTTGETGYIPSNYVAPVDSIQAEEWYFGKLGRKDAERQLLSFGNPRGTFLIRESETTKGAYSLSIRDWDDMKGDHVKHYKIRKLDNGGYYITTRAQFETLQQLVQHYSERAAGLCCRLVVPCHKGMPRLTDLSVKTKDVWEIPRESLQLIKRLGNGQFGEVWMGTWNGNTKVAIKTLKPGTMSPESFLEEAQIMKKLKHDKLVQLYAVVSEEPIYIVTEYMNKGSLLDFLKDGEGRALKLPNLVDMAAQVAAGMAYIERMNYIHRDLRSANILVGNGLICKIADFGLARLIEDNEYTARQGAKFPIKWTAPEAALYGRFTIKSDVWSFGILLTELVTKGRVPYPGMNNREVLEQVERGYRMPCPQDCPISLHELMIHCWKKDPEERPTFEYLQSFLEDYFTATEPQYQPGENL

In the case of `CO[C@H]1C[C@@H]2CC[C@@H](C)[C@@](O)(O2)C(=O)C(=O)N2CCCC[C@H]2C(=O)O[C@H]([C@H](C)C[C@@H]2CC[C@@H](OC(=O)C(C)(CO)CO)[C@H](OC)C2)CC(=O)[C@H](C)/C=C(\C)[C@@H](O)[C@@H](OC)C(=O)[C@H](C)C[C@H](C)/C=C/C=C/C=C/1C` [temsirolimus], the “%-inhibition of TSSK3” value [1] is reported as -2.63%, the “%-inhibition of FYN” value [2] is reported as -1.39% and the “%-inhibition of SLK” value [3] is reported as -4%. The “%-inhibition, CDK4/CycD3” value [4] was -2.83%, the “%-inhibition, AMPKα2/β1/γ1” value [5] was -4% and the “%-inhibition of GSK3β” value [6] was -7.62%. For the same compound, the “%-inhibition of PKCι” value [7] was 13%, the “%-inhibition of LKB1” value [8] was -6.57% and the “%-inhibition of TRKB” value [9] was 1.08%. The “%-inhibition of PIM2” value [10] was -6%, the “%-inhibition of IGF1R” value [11] was -4.62% and the “%-inhibition, BRK” value [12] was -6%. For the same compound, the “%-inhibition of FGFR3(K650M)” value [13] was 0.626%.

`CNC(=O)c1cc(Oc2ccc(NC(=O)Nc3ccc(Cl)c(C(F)(F)F)c3)c(F)c2)ccn1` [regorafenib] was tested, and the “%-inhibition of TSSK3” value [1] was -4.39%, the “%-inhibition of FYN” value [2] was 55% and the “%-inhibition of SLK” value [3] was 29%. The “%-inhibition, CDK4/CycD3” value [4] was 6.52%, the “%-inhibition, AMPKα2/β1/γ1” value [5] was 16% and the “%-inhibition of GSK3β” value [6] was 11%. The “%-inhibition of PKCι” value [7] was -8%, the “%-inhibition of LKB1” value [8] was -5% and the “%-inhibition of TRKB” value [9] was 74%. The “%-inhibition of PIM2” value [10] was -9%, the “%-inhibition of IGF1R” value [11] was -1.72% and the “%-inhibition, BRK” value [12] was 20%. For the same compound, the “%-inhibition of FGFR3(K650M)” value [13] was 101%.

With `COc1cc2nccc(Oc3ccc(NC(=O)C4(C(=O)Nc5ccc(F)cc5)CC4)cc3)c2cc1OC` [cabozantinib] the “%-inhibition of TSSK3” value [1] was -1.06%, the “%-inhibition of FYN” value [2] was 91% and the “%-inhibition of SLK” value [3] was 52%. The “%-inhibition, CDK4/CycD3” value [4] was -5%, the “%-inhibition, AMPKα2/β1/γ1” value [5] was 1.75% and the “%-inhibition of GSK3β” value [6] was -3.51%. For the same compound, the “%-inhibition of PKCι” value [7] was 15%, the “%-inhibition of LKB1” value [8] was -3.17% and the “%-inhibition of PIM2” value [10] was -12%. The “%-inhibition of IGF1R” value [11] was 11% and the “%-inhibition of FGFR3(K650M)” value [13] was 10%.

With `Cc1nc(Nc2ncc(C(=O)Nc3c(C)cccc3Cl)s2)cc(N2CCN(CCO)CC2)n1` [dasatinib] the “%-inhibition of TSSK3” value [1] was -2.69%, the “%-inhibition of FYN” value [2] was 100% and the “%-inhibition, CDK4/CycD3” value [4] was 2.8%. The “%-inhibition of LKB1” value [8] was 0.734% and the “%-inhibition of PIM2” value [10] was 5%.

In the case of `COc1cc2c(Nc3ccc(Br)cc3F)ncnc2cc1OCC1CCN(C)CC1` [vandetanib], the “%-inhibition of TSSK3” value [1] is reported as -2.54%, the “%-inhibition of FYN” value [2] is reported as 88% and the “%-inhibition of SLK” value [3] is reported as 90%. The “%-inhibition, CDK4/CycD3” value [4] was -9%, the “%-inhibition, AMPKα2/β1/γ1” value [5] was 4.74% and the “%-inhibition of GSK3β” value [6] was -3.71%. For the same compound, the “%-inhibition of PKCι” value [7] was 6%, the “%-inhibition of LKB1” value [8] was -4.54% and the “%-inhibition of TRKB” value [9] was 26%. For the same compound, the “%-inhibition of PIM2” value [10] was -6.49%, the “%-inhibition of IGF1R” value [11] was -1.72% and the “%-inhibition, BRK” value [12] was 100%.

`CC(C)(C)c1nc(-c2cccc(NS(=O)(=O)c3c(F)cccc3F)c2F)c(-c2ccnc(N)n2)s1` [dabrafenib] was tested, and the “%-inhibition of TSSK3” value [1] was -8%, the “%-inhibition of SLK” value [3] was 12% and the “%-inhibition of PKCι” value [7] was 14%. The “%-inhibition of LKB1” value [8] was 4.34%, the “%-inhibition of TRKB” value [9] was 86% and the “%-inhibition of PIM2” value [10] was 0.238%. For the same compound, the “%-inhibition, BRK” value [12] was 98% and the “%-inhibition of FGFR3(K650M)” value [13] was 7%.

For `Cc1ccc(Nc2nccc(N(C)c3ccc4c(C)n(C)nc4c3)n2)cc1S(N)(=O)=O` [pazopanib], the “%-inhibition of TSSK3” value [1] was 4.41%, the “%-inhibition of SLK” value [3] was 28% and the “%-inhibition, CDK4/CycD3” value [4] was 16%. For the same compound, the “%-inhibition, AMPKα2/β1/γ1” value [5] was 0.826%, the “%-inhibition of PKCι” value [7] was 0.255% and the “%-inhibition of LKB1” value [8] was 28%. The “%-inhibition of PIM2” value [10] was -4% and the “%-inhibition, BRK” value [12] was 70%.

With `C[C@@H](Oc1cc(-c2cnn(C3CCNCC3)c2)cnc1N)c1c(Cl)ccc(F)c1Cl` [crizotinib] the “%-inhibition of TSSK3” value [1] was -0.601%, the “%-inhibition of FYN” value [2] was 42% and the “%-inhibition, CDK4/CycD3” value [4] was 7%. The “%-inhibition, AMPKα2/β1/γ1” value [5] was 27%, the “%-inhibition of GSK3β” value [6] was -2.11% and the “%-inhibition of PKCι” value [7] was -5%. For the same compound, the “%-inhibition of LKB1” value [8] was -1.39%, the “%-inhibition of TRKB” value [9] was 102% and the “%-inhibition of PIM2” value [10] was -5.28%. The “%-inhibition, BRK” value [12] was 15% and the “%-inhibition of FGFR3(K650M)” value [13] was 61%.

With `COc1cc(Nc2c(C#N)cnc3cc(OCCCN4CCN(C)CC4)c(OC)cc23)c(Cl)cc1Cl` [bosutinib] the “%-inhibition of TSSK3” value [1] was -2%, the “%-inhibition of FYN” value [2] was 95% and the “%-inhibition, AMPKα2/β1/γ1” value [5] was 10%. For the same compound, the “%-inhibition of PKCι” value [7] was 5%, the “%-inhibition of LKB1” value [8] was -5.27% and the “%-inhibition of TRKB” value [9] was 62%. The “%-inhibition of PIM2” value [10] was -12%, the “%-inhibition of IGF1R” value [11] was 15% and the “%-inhibition, BRK” value [12] was 35%.

`CCN(CC)CCNC(=O)c1c(C)[nH]c(/C=C2\C(=O)Nc3ccc(F)cc32)c1C` [sunitinib] was tested, and the “%-inhibition of FYN” value [2] was 88%, the “%-inhibition of LKB1” value [8] was 11% and the “%-inhibition of FGFR3(K650M)” value [13] was 97%.

`Cc1ccc(C(=O)Nc2ccc(CN3CCN(C)CC3)c(C(F)(F)F)c2)cc1C#Cc1cnc2cccnn12` [ponatinib] was tested, and the “%-inhibition of TSSK3” value [1] was -4.67%, the “%-inhibition of FYN” value [2] was 101% and the “%-inhibition, CDK4/CycD3” value [4] was 24%. For the same compound, the “%-inhibition, AMPKα2/β1/γ1” value [5] was 89%, the “%-inhibition of PKCι” value [7] was 18% and the “%-inhibition of LKB1” value [8] was -12%. For the same compound, the “%-inhibition of TRKB” value [9] was 100%, the “%-inhibition of PIM2” value [10] was 3.41% and the “%-inhibition of IGF1R” value [11] was 17%. For the same compound, the “%-inhibition, BRK” value [12] was 97% and the “%-inhibition of FGFR3(K650M)” value [13] was 100%.
